Key:
Type in all cases: cell-based
[1] = test system: iNOS, COX-2, IBA-1 in BV-2 cells; experiment: Western blot of iNOS, COX-2, IBA-1 in LPS-treated BV-2 cells; settings: BV-2, LPS 1 μg/mL
Description: To detect target proteins, specific antibodies to iNOS, IBA-1, GFAP, APP and BACE1 (1:1000; Abcam, Inc., Cambridge, UK), COX-2 (1:1000; Novus Biologicals, Inc., CO, USA), c-Jun N-terminal kinase (JNK), extracellular signal-regulated kinase (ERK) 1/2, p-p38 and p38 ([…]; Cell signaling Technology, Inc., MA, USA), p-STAT3, STAT3, p-ERK1/2, p-JNK, and β-actin (1:200; Santa Cruz Biotechnology Inc., Santa Cruz, Calif., USA) were used.
(§1) Blots were incubated with corresponding conjugated secondary antibodies such as anti-mouse, anti-rabbit and anti-goat obtained from Santa Cruz Biotechnology Inc. (Santa Cruz, Calif., USA). Immunoreactive proteins were detected with an enhanced chemiluminescence Western blotting detection system.
(§2) Microglia BV-2 was cultured and treated simultaneously with LPS (1 μg/mL) or Aβ1-42 (2.5 μM) and various concentrations of bvPLA2 (0.01, 0.1, 1 μg/mL) dissolved in PBS. Cells were harvested after 24 hours to measure cell viability, Nitric Oxide concentration, and a level of pro-inflammatory cytokines.

[2] = test system: TNF-α, IL-1β, IL-6, IL-4, TGF-β in BV-2 cells; experiment: qRT-PCR of cytokines in LPS-treated BV-2 cells; settings: BV-2, LPS 1 μg/mL
Description: Pro-inflammatory and anti-inflammatory cytokine levels were measured by quantitative reverse transcription polymerase chain reaction (qRT-PCR). Total RNA was extracted from hippocampal tissue using RiboEX (Geneall biotechnology, Seoul, Korea), and cDNA was synthesized using a High-Capacity cDNA Reverse Transcription kit (Thermo Scientific, Waltham, Mass., USA).
qRT-PCR was performed on a 7500 real-time PCR system (Applied Biosystems, Foster City, Calif., USA) for custom designed primers, and β-actin was used as a house-keeping control using a HiPi Real-Time PCR SYBR green master mix (ELPIS biotech, Daejeon, Korea).
A cycling condition consisting of an initial denaturation step of 3 minutes at 94° C., a denaturation step of 30 seconds at 94° C., an annealing step of 30 seconds at 60° C., and an extension step of 1 minute at 72° C., was continued until 40 cycles. Values obtained for target gene expression were normalized to β-actin and quantified for expression in control samples.
Each sample was performed with the primers in Table 2 below.
as §2

[3] = test system: NF-κB (p65, p50, p-IκBα) in BV-2 cells; experiment: Western blot of NF-κB subunits and p-IκBα in LPS-treated BV-2 cells; settings: BV-2, LPS 1 μg/mL, bvPLA2 100 ng/mL, NF-κB inhibitor; FIG. 7B
Description: as §1, §2
To determine whether or not bvPLA2 affects inhibition of NF-κB translocation, the level of the NF-κB subunit in the nucleus of BV-2 cells was measured by Western blot.

β-secretase = β-secretase activity assay in LPS-treated BV-2 cells; settings: BV-2, LPS 1 μg/mL, Stattic 1 μM, bvPLA2 1 μg/mL, 24 h; FIG. 21B
Description: β-secretase activity in the mouse brain was determined using a commercially available β-secretase activity assay kit (Abcam, Inc., Cambridge, Mass., USA). A solubilized membrane was extracted from brain tissues using a β-secretase extraction buffer, incubated on ice for 1 hour, and centrifuged at 5000×g for 10 minutes at 4° C. to collect supernatant.
A total of 50 μL of sample (100 μg of total protein) or blank (50 μL of β-secretase extraction buffer) was added to each well (96-well plate), then 50 μL of 2× reaction buffer and 2 μL of β-secretase substrate were incubated for 1 hour in a dark room at 37° C. Fluorescence was read at excitation and emission wavelengths of 335 and 495 nm, respectively, using a fluorescence spectrometer (Gemini EM; Molecular Devices, CA, USA).
as §2

Aβ1-42 in BV-2 cells = experiment: Aβ1-42 ELISA in LPS-treated BV-2 cells; settings: BV-2, LPS 1 μg/mL, Stattic 1 μM, 24 h
Description: Lysates of brain tissue were obtained through a protein extraction buffer containing protease inhibitors. Aβ1-42 and Aβ1-40 levels were measured using the specific mouse β-amyloid peptide 1-42 enzyme-linked immunosorbent assay (ELISA) kit (CSB-E10787m; CUSABIO, Houston, USA) and mouse β-amyloid peptide 1-40 ELISA kit (CSB-E08300m; CUSABIO, Houston, USA), respectively.
To investigate the effect of bvPLA2 on amyloidogenesis in vitro, BV-2 cells were treated with LPS and various concentrations of bvPLA2 (0.01, 0.1, 1 μg/mL) for 24 hours. Aβ1-42 levels in BV-2 cells were determined by ELISA.
The inhibitory effects of a STAT3 inhibitor (Stattic) and the bee venom extracts on amyloid production and neuroinflammation were tested in BV-2 cells. To determine the combination effect of bvPLA2 and Stattic on amyloidogenesis and neuroinflammation in vitro, BV-2 microglia were treated with LPS (1 μg/m L), Stattic (1 μM), or bvPLA2 (1 μg/mL) for 24 h.

Compound | levels of iNOS and COX-2 (Western blot) ([1]; bvPLA2 100 ng/mL, NF-κB inhibitor, FIG. 7A) | expression levels of TNF-α, IL-1β, and IL-6 (qRT-PCR) ([2]; bvPLA2 100 ng/mL, NF-κB inhibitor, FIG. 7C) | levels of p-IκBα, p65, and p50 [3] | β-secretase activity (β-secretase) | intracellular levels of iNOS and COX-2 (Western blot) ([1]; Stattic 1 μM, bvPLA2 1 μg/mL, 24 h, FIG. 21D) | Aβ1-42 level (ELISA) (Aβ1-42 in BV-2 cells) [pg/mg] | expression levels of TNF-α, IL-1β, and IL-6 (qRT-PCR) ([2]; Stattic 1 μM, bvPLA2 1 μg/mL, 24 h, FIG. 21E)
Cc1ccc(S(=O)(=O)/C=C/C#N)cc1 [Bay 11-7802] | decreased | decreased | alleviated |  |  |  | 
O=[N+]([O-])c1ccc2c(c1)S(=O)(=O)C=C2 [Stattic] |  |  |  | decreased | decreased | 264.2 ± 4.384 | decreased
